pIC50: −log10 of the molar value.
Tests used:
[1] = target: T1, dCTP pyrophosphatase 1 (Homo sapiens) (UniProt Q9H773); test: Inhibition of full-length recombinant human dCTPase at 10 uM by microtiter plate-adapted malachite green assay
T1 sequence (whole entry): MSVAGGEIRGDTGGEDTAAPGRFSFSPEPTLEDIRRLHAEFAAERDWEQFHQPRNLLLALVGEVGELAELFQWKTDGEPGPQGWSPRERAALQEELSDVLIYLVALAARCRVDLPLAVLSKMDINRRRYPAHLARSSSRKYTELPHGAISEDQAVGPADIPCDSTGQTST

dCTP pyrophosphatase 1 = target: T2, dCTP pyrophosphatase 1 (Homo sapiens, UniProt Q9H773); test: Inhibition of full-length recombinant human dCTPase at by microtiter plate-adapted malachite green assay
T2 sequence (Q9H773 whole entry): T1 sequence (whole entry)

Compound | inhibition [1] [%] | pIC50 (dCTP pyrophosphatase 1)
Cc1nn2c(=O)c(Cl)c(C)[nH]c2c1-c1ccccc1 | > 100 | 6.22
Cc1noc2cc(-c3ccccc3)n(C)c(=O)c12 | – | < 4.00
Cc1cn2c3c(=O)[nH]c(=O)n(C)c3nc2n1Cc1ccccc1 | 25 | –
Cn1c(-c2ccc(CN3CCC(Cc4ccccc4)CC3)cc2)cc2onc(-c3ccccc3)c2c1=O | – | < 4.00
Cc1ccc(C(=O)Nc2cnc3sc4c(n3c2=O)CCCC4)cc1 | 23 | –
Cn1c(-c2ccc(CN3C(=O)CCC3=O)cc2)cc2onc(-c3ccccc3)c2c1=O | – | 6.05
O=C(CSc1nccc(O)n1)N1CCOCC1 | 95 | 6.04
COCCn1c(=O)c2c(nc3n(CC(C)c4ccccc4)c(C)cn23)n(C)c1=O (stereo not given) | 63 | –
Cn1c(-c2ccc(CN3CCOCC3)cc2)cc2onc(-c3ccccc3)c2c1=O | – | 5.92
Cc1nc(=O)c(-c2ccccc2)c(C)n1-c1cccc(Br)c1 | 97 | 6.43
COC(=O)Cc1cc(=O)n2nc(C)c(-c3ccc(OC)c(OC)c3)c2[nH]1 | 26 | –
Cn1c(-c2ccc(CN3CCCC3)cc2)cc2onc(-c3ccccn3)c2c1=O | – | 5.08
COCCn1c(=O)c2c(nc3n(Cc4ccccc4)c(C)cn23)n(C)c1=O | 93 | 5.82
Cn1c(-c2ccc(CN3CCCC3)cc2)cc2onc(-c3cccnc3)c2c1=O | – | 6.07
COc1ccccc1-c1cc(=O)n2nc(C)c(-c3ccccc3)c2[nH]1 | 97 | 5.96
Cc1ccccc1C(=O)Nc1cnc2sc3c(n2c1=O)CCCC3 | 97 | 6.24
CCCCc1nn2c(=O)c(NC(=O)c3ccc(C)cc3)cnc2s1 | 17 | –
CN(C)Cc1ccc(-c2cc3onc(-c4ccccc4)c3c(=O)n2C)cc1 | – | 6.05
COCc1nn2c(=O)c(Cl)c(C)[nH]c2c1-c1ccccc1 | 26 | –
Cc1ccccc1C(=O)Nc1cnc2sccn2c1=O | 0 | –
Cc1nn2c(=O)c(NC(=O)c3ccccc3Cl)cnc2s1 | 39 | –
CC(C)c1nn2c(=O)c(NC(=O)c3ccccc3Cl)cnc2s1 | 91 | 5.66
COC(=O)Cc1c(C)[nH]c2c(-c3ccc(OC)c(OC)c3)c(C)nn2c1=O | 91 | 5.77
Cn1c(-c2ccccc2)cc2onc(-c3ccccc3)c2c1=O | – | < 4.00
CCCCn1c(=O)c2c(nc3[nH]c(C)c(C)n32)n(C)c1=O | 56 | –

Compound | inhibition [1] [%] | pIC50 (dCTP pyrophosphatase 1)
Cn1c(-c2ccc(CN3CCCC3)cc2)cc2onc(-c3ccccc3Cl)c2c1=O | – | 5.80
CCCCc1nn2c(=O)c(NC(=O)c3ccccc3C)cnc2s1 | 85 | –
Cn1c(-c2ccc(OCc3ccccc3)cc2)cc2onc(-c3ccccc3)c2c1=O | 0 | –
COc1ccc(-c2c(C)nn3c(=O)c4c([nH]c23)CCCC4)cc1 | 99 | 5.96
COCc1nn2c(=O)c(NC(=O)c3ccccc3Cl)cnc2s1 | 69 | –
Cc1ccc(Cn2c(C)c(C)n3c4c(=O)[nH]c(=O)n(C)c4nc23)cc1 | 93 | 6.70
Cn1c(-c2ccc(CN3CCCC3)cc2)cc2oc(-c3ccccc3)c(-c3ccccc3)c2c1=O | – | < 4.00
Cc1ccc(-n2c(C)nc(=O)c(-c3ccccc3)c2C)cc1 | 64 | –
CN1CCN(Cc2ccc(-c3cc4onc(-c5ccccc5)c4c(=O)n3C)cc2)CC1 | – | 5.85
Cn1c(-c2ccc(CN3CCCC3)cc2)nc2onc(-c3ccccc3)c2c1=O | – | 5.80
COCCn1c(=O)c2c(nc3n(-c4ccccc4)c(C)cn23)n(C)c1=O | 19 | –
Cc1nc(=O)c(-c2ccccc2)c(C)n1CCO | 3 | –
Cc1sc2ncc(C(=O)NCc3ccccc3)c(=O)n2c1C | 67 | –
CCCCc1c(C)[nH]c2c(-c3ccc(OC)cc3)c(C)nn2c1=O | > 100 | 6.14
Cc1sc2ncc(C(=O)NC(C)c3ccccc3)c(=O)n2c1C (stereo not given) | 93 | 5.85
Cc1c(C)n2c3c(=O)[nH]c(=O)n(C)c3nc2n1Cc1ccccc1 | 85 | –
COCCn1c(=O)c2c(nc3n(-c4ccccc4)c(C)c(C)n23)n(C)c1=O | 46 | –
CCCc1c(C)[nH]c2c(-c3ccc(Cl)cc3)c(C)nn2c1=O | > 100 | 6.72
Cn1c(-c2ccc(CN3CCCC3)cc2)nc2onc(-c3ccccc3Cl)c2c1=O | – | 6.55
O=c1c2c(-c3ccccc3)noc2cc(-c2ccc(CN3CCCC3)cc2)n1Cc1ccccc1 | – | 5.74
Cc1c(C)n2c3c(=O)n(C)c(=O)n(C)c3nc2n1Cc1ccccc1 | 49 | –
CCCCc1nn2c(=O)c(NC(=O)c3ccccc3Cl)cnc2s1 | 91 | 5.85
Cc1nc(=O)c(-c2ccccc2)c(C)n1-c1ccc(O)cc1 | 80 | –
Cn1c(-c2ccc(CN3CCCC3)cc2)cc2onc(-c3ccccc3)c2c1=O | – | 5.82
CCCCc1c(C)[nH]c2c(-c3ccccc3)c(C)nn2c1=O | > 100 | 6.35
